Assay results reported in PubChem BioAssay AID2060613 (Molecular Pharmacology Branch, DTP, NCI, 2025).
Values joined by “and” are separate entries in the source; they are usually repeats but may differ in a detail not shown here. Equal values may be shown once.

System: 233499-124-R-J3-PDC complex spheroid viability
Assay: Anticancer human tumor 233499-124-R-J3-PDC patient-derived colon adenocarcinoma cell line growth inhibition [CLK]
Conditions: for viability, T/C: stronger effect = lower value; active means viability on the fitted dose curve at most 10% of control; inactive means the rest
Procedure, shortened: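 Multi-cell-type spheroids combined patient-derived tumor cells with HUVEC endothelial cells and human mesenchymal stem cells. Paired agents were dosed in half-log steps down from about clinical Cmax, or from 10 microM where Cmax was unknown.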

[1] = curve of first compound, second compound 0.0316 µM
[2] = curve of first compound, second compound 0.1 µM
[3] = curve of first compound, second compound 0.316 µM
[4] = curve of first compound, second compound 1 µM
[5] = curve of first compound, second compound 3.16 µM
[6] = curve of first compound, second compound 10 µM
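Further: spheroids exposed to the drug combinations for seven days.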
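Wherever viability, T/C is given: percent viability relative to DMSO vehicle control wells taken as 100%.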

CC(C)CC(NC(=O)C(Cc1ccccc1)NC(=O)c1cnccn1)B(O)O (stereo unspecified) + CNC(=O)c1ccc(Nc2nc(OC3CCCC3)c3c(-c4ccc5nc(C)oc5c4)c[nH]c3n2)c(OC)c1
4.71 nM: IC50 [2]
5.39 nM: IC50 [1]
active: viability, T/C (second compound 0.0316 µM, first compound 0.00949 µM) 0.33% | viability, T/C (second compound 0.0316 µM, first compound 0.03 µM) 0.21% | viability, T/C (second compound 0.0316 µM, first compound 0.0949 µM) 0.19% | viability, T/C (second compound 0.0316 µM, first compound 0.3 µM) 0.17% | viability, T/C (second compound 0.1 µM, first compound 0.00949 µM) 0.57% | viability, T/C (second compound 0.1 µM, first compound 0.03 µM) 0.17% | viability, T/C (second compound 0.1 µM, first compound 0.0949 µM) 0.16% | viability, T/C (second compound 0.1 µM, first compound 0.3 µM) 0.16% | viability, T/C (second compound 0.316 µM, first compound 0.00949 µM) 0.19% | viability, T/C (second compound 0.316 µM, first compound 0.03 µM) 0.16% | viability, T/C (second compound 0.316 µM, first compound 0.0949 µM) 0.14% | viability, T/C (second compound 0.316 µM, first compound 0.3 µM) 0.54% | viability, T/C (second compound 1 µM, first compound 0.00949 µM) 0.18% | viability, T/C (second compound 1 µM, first compound 0.03 µM) 0.15% | viability, T/C (second compound 1 µM, first compound 0.0949 µM) 0.15% | viability, T/C (second compound 1 µM, first compound 0.3 µM) 0.15% | viability, T/C (second compound 3.16 µM, first compound 0.00949 µM) 0.16% | viability, T/C (second compound 3.16 µM, first compound 0.03 µM) 0.16% | viability, T/C (second compound 3.16 µM, first compound 0.0949 µM) 0.16% | viability, T/C (second compound 3.16 µM, first compound 0.3 µM) 0.7% | viability, T/C (second compound 10 µM, first compound 0.00949 µM) 0.2% | viability, T/C (second compound 10 µM, first compound 0.03 µM) 0.17% | viability, T/C (second compound 10 µM, first compound 0.0949 µM) 0.2% | viability, T/C (second compound 10 µM, first compound 0.3 µM) 0.66%
2.07 nM: IC50 [4]
inactive: viability, T/C (second compound 0.0316 µM, first compound 0.000949 µM) 96.3% | viability, T/C (second compound 0.0316 µM, first compound 0.003 µM) 106% | viability, T/C (second compound 0.1 µM, first compound 0.000949 µM) 81.5% | viability, T/C (second compound 0.1 µM, first compound 0.003 µM) 82.5% | viability, T/C (second compound 0.316 µM, first compound 0.000949 µM) 69.5% | viability, T/C (second compound 0.316 µM, first compound 0.003 µM) 43.7% | viability, T/C (second compound 1 µM, first compound 0.000949 µM) 92.2% | viability, T/C (second compound 1 µM, first compound 0.003 µM) 30.1% | viability, T/C (second compound 3.16 µM, first compound 0.000949 µM) 71.7% | viability, T/C (second compound 3.16 µM, first compound 0.003 µM) 18.4% | viability, T/C (second compound 10 µM, first compound 0.000949 µM) 77% | viability, T/C (second compound 10 µM, first compound 0.003 µM) 34.5%
1.97 nM: IC50 [6]
2.27 nM: IC50 [3]
1.51 nM: IC50 [5]

CC(CO)NC(=O)c1cc(-c2ccc(Cl)cc2)nn(-c2cnn(C)c2)c1=O (stereo unspecified)
inactive: viability, T/C (compound 0.0316 µM) 103% and 94.8% | viability, T/C (compound 0.1 µM) 95.2% and 90.1% | viability, T/C (compound 0.316 µM) 96.3% and 95.6% | viability, T/C (compound 1 µM) 96.8% and 92.9% | viability, T/C (compound 3.16 µM) 92.7% and 96% | viability, T/C (compound 10 µM) 89.7% and 83.2%
> 10000 nM: IC50 (curve of compound)

Cn1ncnc1[C@H]1c2n[nH]c(=O)c3cc(F)cc(c23)N[C@@H]1c1ccc(F)cc1 + CN1CCN(c2cc(C(=O)Nc3cc4cc(-c5cnn(C)c5)ccc4cn3)ccn2)CC1
inactive: viability, T/C (second compound 0.0316 µM, first compound 0.000316 µM) 91.2% | viability, T/C (second compound 0.0316 µM, first compound 0.001 µM) 108% | viability, T/C (second compound 0.0316 µM, first compound 0.00316 µM) 100% | viability, T/C (second compound 0.0316 µM, first compound 0.01 µM) 110% | viability, T/C (second compound 0.0316 µM, first compound 0.0316 µM) 104% | viability, T/C (second compound 0.0316 µM, first compound 0.1 µM) 92.7% | viability, T/C (second compound 0.1 µM, first compound 0.000316 µM) 100% | viability, T/C (second compound 0.1 µM, first compound 0.001 µM) 105% | viability, T/C (second compound 0.1 µM, first compound 0.00316 µM) 89.5% | viability, T/C (second compound 0.1 µM, first compound 0.01 µM) 97.8% | viability, T/C (second compound 0.1 µM, first compound 0.0316 µM) 92.1% | viability, T/C (second compound 0.1 µM, first compound 0.1 µM) 94.4% | viability, T/C (second compound 0.316 µM, first compound 0.000316 µM) 85.5% | viability, T/C (second compound 0.316 µM, first compound 0.001 µM) 103% | viability, T/C (second compound 0.316 µM, first compound 0.00316 µM) 101% | viability, T/C (second compound 0.316 µM, first compound 0.01 µM) 89.6% | viability, T/C (second compound 0.316 µM, first compound 0.0316 µM) 92.7% | viability, T/C (second compound 0.316 µM, first compound 0.1 µM) 101% | viability, T/C (second compound 1 µM, first compound 0.000316 µM) 19.1%
< 0.316 nM: IC50 [4] | IC50 [5] | IC50 [6]
> 100 nM: IC50 [1] | IC50 [2] | IC50 [3]
active: viability, T/C (second compound 1 µM, first compound 0.001 µM) 2.31% | viability, T/C (second compound 1 µM, first compound 0.00316 µM) 5.38% | viability, T/C (second compound 1 µM, first compound 0.01 µM) 1.23% | viability, T/C (second compound 1 µM, first compound 0.0316 µM) 2.59% | viability, T/C (second compound 1 µM, first compound 0.1 µM) 0.76% | viability, T/C (second compound 3.16 µM, first compound 0.000316 µM) 0.59% | viability, T/C (second compound 3.16 µM, first compound 0.001 µM) 0.64% | viability, T/C (second compound 3.16 µM, first compound 0.00316 µM) 0.58% | viability, T/C (second compound 3.16 µM, first compound 0.01 µM) 0.53% | viability, T/C (second compound 3.16 µM, first compound 0.0316 µM) 0.57% | viability, T/C (second compound 3.16 µM, first compound 0.1 µM) 0.46% | viability, T/C (second compound 10 µM, first compound 0.000316 µM) 0.41% | viability, T/C (second compound 10 µM, first compound 0.001 µM) 0.43% | viability, T/C (second compound 10 µM, first compound 0.00316 µM) 0.45% | viability, T/C (second compound 10 µM, first compound 0.01 µM) 0.44% | viability, T/C (second compound 10 µM, first compound 0.0316 µM) 0.51% | viability, T/C (second compound 10 µM, first compound 0.1 µM) 0.56%
